Molecules are shown by their SMILES. “Also recorded” adds a separate entry of the source.

The target in one series is T1, yeast Sir2 (ySir2) (Saccharomyces cerevisiae, UniProt P06700).
T1 construct: His; made in house
The experiment in a line: Yeast Sir2 deacetylase inhibition, HDAC fluorescent activity assay (BIOMOL AK-500). The class given is biochemical. As to conditions: for inhibition at 100 µM: 100 μM inhibitor, read-out: % inhibtn (100 μM) ySir2; for inhibition at 100 µM / IC50: 200 μM NAD+, 30° C., 60 min; for ySir2 inhibitory activity, in words: compared with sirtinol 1. The procedure:
(§1) Recombinant His-tagged yeast ySir2 and His-tagged hSIRT1 were purified and assayed for deacetylase activity using the HDAC fluorescent activity assay/drug discovery kit (AK-500, BIOMOL Research Laboratories).^55 This assay system allows detection of a fluorescent signal upon deacetylation of a histone substrate when treated with developer. Fluorescence was measured on a fluorometric reader (Wallac Victor III fluorescence plate reader Perkin Elmer) with excitation set at 360 nm and emission detection set at 450 nm. Reactions consisted of either 3 μg of ySir2 or 1 μg of SIRT1, incubated with 250 μM acetylated histone substrate, 1 mM dithiothreitol, and a range of inhibitor concentrations as described. Reactions with the yeast and human proteins were carried out at 30 and 37° C., respectively, for 60 min. Assays were performed in the presence of 200 μM NAD^+ and each of the inhibitors at 0, 20, 75, 100, 150, or 300 μM concentrations.
as §1, with “In Vitro Yeast Sir2 Enzyme Inhibition. Recombinant” for “Recombinant”, “Sir2p was” for “ySir2 and His-tagged hSIRT1 were”, “Laboratories).^42” for “Laboratories).^55”, “of” for “of either”, “ySir2” for “ySir2 or 1 μg of SIRT1,”

Another series has as its target T2, human SIRT1 (hSIRT1) (Homo sapiens, UniProt Q96EB6).
T2 construct: His; made in house
T2 sequence (Q96EB6 1-747): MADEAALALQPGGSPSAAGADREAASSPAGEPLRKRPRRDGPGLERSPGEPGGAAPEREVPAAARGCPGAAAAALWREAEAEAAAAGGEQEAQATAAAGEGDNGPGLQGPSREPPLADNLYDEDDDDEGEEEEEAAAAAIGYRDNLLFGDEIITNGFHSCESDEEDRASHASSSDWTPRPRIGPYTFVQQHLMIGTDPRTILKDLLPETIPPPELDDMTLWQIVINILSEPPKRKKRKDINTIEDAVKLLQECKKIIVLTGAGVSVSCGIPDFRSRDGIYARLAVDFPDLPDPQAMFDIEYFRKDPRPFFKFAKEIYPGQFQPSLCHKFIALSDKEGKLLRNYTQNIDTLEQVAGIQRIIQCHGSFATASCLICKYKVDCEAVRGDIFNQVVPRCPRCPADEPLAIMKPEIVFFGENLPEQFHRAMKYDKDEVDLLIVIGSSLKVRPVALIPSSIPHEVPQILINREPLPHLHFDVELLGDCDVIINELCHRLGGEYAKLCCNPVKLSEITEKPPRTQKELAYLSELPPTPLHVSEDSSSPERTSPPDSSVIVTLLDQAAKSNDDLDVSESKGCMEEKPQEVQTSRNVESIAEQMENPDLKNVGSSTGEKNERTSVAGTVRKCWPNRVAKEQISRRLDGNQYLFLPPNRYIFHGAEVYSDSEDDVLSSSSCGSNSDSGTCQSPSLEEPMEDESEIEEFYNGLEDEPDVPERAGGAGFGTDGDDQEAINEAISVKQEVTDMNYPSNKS
The series can be described thus: Human SIRT1 deacetylase inhibition, HDAC fluorescent activity assay (BIOMOL AK-500). The series is classed as biochemical. As to conditions: for inhibition at 100 µM: 100 μM inhibitor, read-out: % inhibtn (100 μM) hSIRT1; for inhibition at 100 µM / IC50: 200 μM NAD+, 37° C., 60 min; for fold more potent than sirtinol (1) in inhibiting hSIRT1: relative to sirtinol 1. The procedure: as §1

The target of another series is T3, SIRT2 isoform 1 (Homo sapiens, UniProt Q8IXJ6).
T3 construct: His; made in house
T3 sequence (Q8IXJ6 1-389): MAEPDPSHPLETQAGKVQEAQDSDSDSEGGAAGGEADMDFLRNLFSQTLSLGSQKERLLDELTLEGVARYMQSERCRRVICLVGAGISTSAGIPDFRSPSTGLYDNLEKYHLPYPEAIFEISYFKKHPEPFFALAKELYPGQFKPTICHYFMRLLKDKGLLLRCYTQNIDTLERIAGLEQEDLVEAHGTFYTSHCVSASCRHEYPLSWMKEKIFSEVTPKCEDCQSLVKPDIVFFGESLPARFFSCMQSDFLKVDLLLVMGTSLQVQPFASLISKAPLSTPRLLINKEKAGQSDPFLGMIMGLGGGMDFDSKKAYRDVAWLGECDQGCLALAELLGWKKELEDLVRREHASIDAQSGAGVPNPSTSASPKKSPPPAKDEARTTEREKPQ
The experiment in a line: SIRT2 deacetylase inhibition, HDAC fluorescent activity assay (BIOMOL AK-500). The class given is biochemical. Particulars: for inhibition at 100 µM: read-out: SIRT2 % inhibition at 100 μM, 100 μM compound; for IC50: dose response curve; for fold more potent than 1 in inhibiting SIRT2: relative to sirtinol 1. The method, then: as §1
Recombinant His-tagged SIRT2 isoform 1 was purified and assayed for deacetylase activity using the HDAC fluorescent activity assay/drug discovery kit (AK-500, BIOMOL Research Laboratories) as described above. […] A dose response curve for determining the IC50 was also done.

For series [1], the system named is Sir2-mediated telomeric URA3 gene silencing. The series can be described thus: Telomeric silencing assay (phenotypic screening, URA3 reporter, 5-FOA). The class given is cell-based, yeast. As to conditions: relative to sirtinol 1, plates with 5-FOA, densitometric scanning at 16.7 μM. The method, then:
Wildtype (AYH2.45)^50 and sir2Δ (STY30)^50 strains were grown to exponential phase (0.5 OD/mL) in YPD medium and cells were spotted in 10-fold dilutions on SC medium containing 1 mg/mL 5-fluoroorotic acid (5-FOA).^51 When appropriate, cells were grown on plates containing 0.18% DMSO and the specified concentration of Sir2 inhibitor (5.6 and 16.7 μM). Cell growth was evaluated after 3-4 d at 30° C.
The yeast strain contained a URA3 reporter gene integrated into the sub-telomeric region of chromosome VII-L where it is silenced by Sir2.^50 In the presence of 5-fluoroorotic acid (5-FOA), loss of transcriptional silencing in this strain and the corresponding increase in URA3 expression is lethal (FIG. 2).^51
A semi-quantitative assay of the spots on the plates treated with 5-FOA and the Sir2 inhibitors at 16.7 μM concentration was performed by densitometric scanning of the plates.

T1 sequence (P06700 whole entry): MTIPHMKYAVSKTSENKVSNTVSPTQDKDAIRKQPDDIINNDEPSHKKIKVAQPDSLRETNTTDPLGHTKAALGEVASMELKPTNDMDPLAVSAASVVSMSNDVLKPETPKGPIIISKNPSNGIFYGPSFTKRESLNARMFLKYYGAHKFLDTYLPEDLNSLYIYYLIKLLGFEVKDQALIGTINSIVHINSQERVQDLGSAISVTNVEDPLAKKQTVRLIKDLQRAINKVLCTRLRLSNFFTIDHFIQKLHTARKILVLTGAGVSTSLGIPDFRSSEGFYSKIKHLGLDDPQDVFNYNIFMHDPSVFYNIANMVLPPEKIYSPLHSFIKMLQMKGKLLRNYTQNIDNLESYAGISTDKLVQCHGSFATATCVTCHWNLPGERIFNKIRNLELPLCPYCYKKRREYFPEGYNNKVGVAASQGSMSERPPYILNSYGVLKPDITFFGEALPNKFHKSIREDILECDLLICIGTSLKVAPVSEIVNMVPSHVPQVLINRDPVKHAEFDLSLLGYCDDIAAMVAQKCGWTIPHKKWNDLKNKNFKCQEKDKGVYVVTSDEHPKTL

For the compound `C[C@@H](NC(=O)c1ccccc1/N=C/c1c(O)ccc2ccccc12)c1ccccc1` [Compound 9, (R)-sirtinol], the results for the inhibition at 100 µM at yeast Sir2 (ySir2), at human SIRT1 (hSIRT1) and at SIRT2 isoform 1 were 55.5%, 61.8% and 72.2%, respectively. The “ySir2 inhibitory activity, in words” value on yeast Sir2 (ySir2) is reported as “IC50 values similar to that of sirtinol 1”.
What is called IC50 is the midpoint of a concentration-inhibition curve. With `CC(NC(=O)c1ccc(/N=C/c2c(O)ccc3ccccc23)cc1)c1ccccc1` (stereo not shown) [Compound 8, 4-[(2-hydroxy-1-naphthalenylmethylene)amino]-N-(1-phenylethyl)benzamide], at yeast Sir2 (ySir2), the inhibition at 100 µM stood at 59.8%; the IC50 is 33 ± 1 µM; the “ySir2 inhibitory activity, in words” value is “IC50 values similar to that of 1; also recorded: IC50 values similar to those of 1”. The “fold more potent than sirtinol (1) in inhibiting ySir2” value on yeast Sir2 (ySir2) (relative to sirtinol 1) came out at 1.5 fold. For the same compound, at human SIRT1 (hSIRT1), the inhibition at 100 µM turned out to be 82.6%, the IC50 worked out at 13 µM and the “fold more potent than sirtinol (1) in inhibiting hSIRT1” value turned out to be 10 fold. Besides, the “fold more potent than sirtinol (1) in inhibiting hSIRT1” value on human SIRT1 (hSIRT1) (listed as para-sirtinol) is 8 fold. In addition, the “SIRT2 inhibitory potency, in words” value at SIRT2 isoform 1 (among compounds 1, 7-10) is recorded as “most potent”. At SIRT2 isoform 1, the IC50 is 25.9 µM, the inhibition at 100 µM is 80.2% and the “fold more potent than 1 in inhibiting SIRT2” value is given as 2.2 fold. The “Sir2 inhibitory potency in phenotypic screening, in words” value (“Sir2 inhibitory potency” for short) in series [1] (listed as para-sirtinol) is “more potent Sir2 inhibitory activity than sirtinol”.
On to `CC(NC(=O)c1ccccc1/N=C/c1c(O)ccc2ccccc12)c1ccccc1` (racemic) [Compound 1, sirtinol, reference compound], for which the figures for the inhibition at 100 µM at yeast Sir2 (ySir2), on human SIRT1 (hSIRT1) and on SIRT2 isoform 1 were 65.6%, 44.5% and 71%, respectively.
By melting point is commonly meant the temperature, or range, at which the solid turns liquid. `NC(=O)c1ccccc1/N=C/c1c(O)ccc2ccccc12` [Compound 5]: the melting point fell in the range of 238 to 240 °C. In addition, at yeast Sir2 (ySir2), the inhibition at 100 µM fell in the range of 0 to 5% and the “ySir2 inhibitory activity, in words” value is “totally inactive; also recorded: total loss of Sir2 inhibitory activity”. In addition, at human SIRT1 (hSIRT1), the “hSIRT1 inhibitory activity, in words” value is “totally inactive” and the inhibition at 100 µM was in the range of 0 to 5%.
For `CCOC(=O)c1ccccc1/N=C/c1c(O)ccc2ccccc12` [Compound 3], the inhibition at 100 µM is 20% at yeast Sir2 (ySir2) and 9% at human SIRT1 (hSIRT1). Besides, on yeast Sir2 (ySir2) (relative to sirtinol 1), the “fold less potent than sirtinol (1) in inhibiting ySir2” value is 3 fold.
The compound `N#Cc1ccccc1/N=C/c1c(O)ccc2ccccc12` [Compound 6] gave a melting point of 139 to 141 °C. Besides, the inhibition at 100 µM on yeast Sir2 (ySir2) worked out at 15%. Further, the “fold less potent than sirtinol (1) in inhibiting ySir2” value at yeast Sir2 (ySir2) (relative to sirtinol 1) is 4 fold. For the same compound, the inhibition at 100 µM on human SIRT1 (hSIRT1) is 20%.
As for `CC(NC(=O)c1cccc(/N=C/c2c(O)ccc3ccccc23)c1)c1ccccc1` (stereo not shown) [Compound 7, 3-[(2-hydroxy-1-naphthalenylmethylene)amino]-N-(1-phenylethyl)benzamide], at yeast Sir2 (ySir2), the inhibition at 100 µM worked out at 53.9%; the IC50 amounted to 72 ± 3 µM; the “ySir2 inhibitory activity, in words” value is listed as “IC50 values similar to that of 1; also recorded: IC50 values similar to those of 1”. For the same compound, the “fold less potent than sirtinol (1) in inhibiting ySir2” value on yeast Sir2 (ySir2) (relative to sirtinol 1) is given as 1.5 fold. Further, on human SIRT1 (hSIRT1), the inhibition at 100 µM came to 63%, the IC50 is 59 ± 2 µM and the “fold more potent than sirtinol (1) in inhibiting hSIRT1” value is 2.2 fold. Moreover, on human SIRT1 (hSIRT1) (listed as meta-sirtinol), the “fold more potent than sirtinol (1) in inhibiting hSIRT1” value turned out to be 2 fold. In addition, at SIRT2 isoform 1, half-maximal inhibition (IC50) required 35.7 µM, the inhibition at 100 µM was determined as 79.2% and the “fold more potent than 1 in inhibiting SIRT2” value came to 1.6 fold. The “Sir2 inhibitory potency” value in series [1] was “more potent inhibitors than 1; also recorded: more potent than sirtinol; also recorded: same potent Sir2 inhibitory as 1”. In addition, the “Sir2 inhibitory potency” value in series [1] (listed as meta-sirtinol) was “more potent Sir2 inhibitory activity than sirtinol”.
For `C[C@H](NC(=O)c1ccccc1/N=C/c1c(O)ccc2ccccc12)c1ccccc1` [Compound 10, (S)-2-[(2-hydroxy-1-naphthalenylmethylene)amino]-N-(1-phenylethyl)benzamide], the inhibition at 100 µM was 57% at yeast Sir2 (ySir2), 60.2% on human SIRT1 (hSIRT1) and 73.5% at SIRT2 isoform 1. Further, on yeast Sir2 (ySir2), the “ySir2 inhibitory activity, in words” value is “IC50 values similar to that of sirtinol 1”.
The compound `O=C(O)c1ccccc1/N=C/c1c(O)ccc2ccccc12` [Compound 4] yielded a melting point of 180 to 182 °C. The inhibition at 100 µM at yeast Sir2 (ySir2) came out at 5%. The inhibition at 100 µM on human SIRT1 (hSIRT1) came out at 26%.
In the case of `CC(NC(=O)c1ccccc1/N=C/c1cccc2ccccc12)c1ccccc1` (stereo not shown) [Compound 2, 2-[(1-naphthalenylmethylene)amino]-N-(1-phenylethyl)benzamide], the melting point lay in the range of 101 to 103 °C. Further, the inhibition at 100 µM on yeast Sir2 (ySir2) is 10%. Also, on human SIRT1 (hSIRT1), the inhibition at 100 µM was 33%.
